The results in this text go back to article PMC11637483, “Dissecting caspase-2-mediated cell death: from intrinsic PIDDosome activation to chemical modulation” (Protein & Cell, 2024).

Substitutions are numbered along the chain they refer to. Values joined by “and” are separate entries in the source; they are usually repeats but may differ in a detail not shown here. Equal values may be shown once. “Also recorded” adds a separate entry of the source.

The test system of experiment [1] is caspase-2 interdomain linker mutants in HeLa TKO cells. The experiment can be described thus: Cell death and caspase-2 activation in HeLa TKO cells expressing caspase-2 linker mutants. Format: cell-based. The source says: Figure 4. HUHS015 activates human caspase-2 directly through specific targeting of the interdomain linker of caspase-2. (A) The direct binding between HUHS015-36 and MBP-fused human caspase-2 pro-domain was detected by microscale thermophoresis (MST). MST profiles for raw binding signals and affinity (KD) measurement are shown. The calculated dissociation constant (KD) is expressed as means ± s.d. from two determinations. (B) Sequence alignment of the pro-domain (residues 1–169) of human and mouse caspase-2. CARD domain annotation is shown on top of the sequences. Identical residues are in red background and conserved ones are in red. Numbers of starting residues are indicated on the left. Different residues in the interdomain linker (residues 122–169) were highlighted with green color. (C) HUHS015 activates human but not mouse caspase-2. HeLa TKO cells rescued with human or mouse caspase-2 expression were treated with HUHS015 for the indicated time. ATP-based cell viability and immunoblotting detecting caspase-2 processing are shown. […] ATP-based cell viability in panels (C–E) is expressed as mean ± s.d. from three technical replicates. […] TEXT PRINTED IN THE PICTURE: (A) HUHS015-36: MBP-CASP2(32–165) vs. HUHS015-36: KD (μmol/L): 22.05 ± 6.151; MBP vs. HUHS015-36: KD (μmol/L): Not detected […]

Experiment [2] has as its target T1, MBP-CASP2(32-165)-L150P/Y151H (Homo sapiens, UniProt P42575, L150P/Y151H).
T1 construct: cDNAs encoding BID and caspase-2 pro-domain (residues 32–165) were constructed into modified pET vectors; made in house; host or cells: E. coli BL21 (DE3)
T1 sequence (P42575 32-165 L150P/Y151H): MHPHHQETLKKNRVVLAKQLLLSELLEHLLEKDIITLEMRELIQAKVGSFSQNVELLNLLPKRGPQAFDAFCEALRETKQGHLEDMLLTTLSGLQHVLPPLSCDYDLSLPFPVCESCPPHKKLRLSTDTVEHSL
The experiment can be described thus: MicroScale Thermophoresis binding to L150P/Y151H mutant pro-domain. The conditions noted are these: MST, L150P/Y151H double mutant. The source says: The contrasting responses of the two caspases to HUHS015 might result from sequence differences in the interdomain linker in the pro-domain. […] However, replacing L150 and Y151 in human caspase-2 with mouse P150 and H151, respectively, abolished HUHS015-induced caspase-2 activation as well as the cell death response (Fig. 4D). […] The importance of L150/Y151 for human caspase-2 activation by HUHS015 indicates these residues or the associated structure are likely involved in binding to the compound agonist.
MicroScale thermophoresis (MST) experiments were carried out at 25°C in the PBST Buffer (PBS with 0.05%, v/v Tween 20) by using a Monolith 2020 (TNG) (MM-208). […] The temperature-induced changes in fluorescence intensity of each sample in the capillary thermophoresis tubes were recorded by the Monolith instrument. The data were analyzed using the program provided by the manufacturer. The binding constant (KD) was calculated directly from the fitting.
Relative fluorescence (%) […]
(A) HUHS015-36 activates caspase-2 independently of PIDDosome. […] A TP-based cell viability is expressed as mean±s.d. from three technical replicates.
Immunoblotting detecting caspase-2 and BID processing is shown. […] A TP-based cell viability is expressed as mean±s.d. from three technical replicates. […]

Experiment [3] deals with T2, MBP-CASP2(32–165), human caspase-2 pro-domain (Homo sapiens, UniProt P42575).
T2 construct: cDNAs encoding BID and caspase-2 pro-domain (residues 32–165) were constructed into modified pET vectors; made in house; host or cells: E. coli BL21 (DE3)
T2 sequence (P42575 32-165): T1 sequence (P42575 32-165 L150P/Y151H) with P119L, H120Y
The experiment can be described thus: MicroScale Thermophoresis binding to MBP-fused caspase-2 pro-domain. The conditions noted are these: MST, 25°C, PBST buffer; means ± s.d. from two determinations; read-out: KD (binding constant). The source says: The above results prompted us to reason whether HUHS015-36 could directly target caspase-2 for activation without the requirement of any other mediator. To directly test this hypothesis, we tried to obtain purified caspase-2 protein. The preparation of full-length caspase-2 protein is known to be technically challenging. Meanwhile, the CARD domain of a caspase often plays the role in sensing upstream signals, as exemplified by the CARD of caspase-2 that is recruited by RAIDD through the CARD–CARD interaction for assembling the PIDDosome. […]
Figure 4. […] (A) The direct binding between HUHS015-36 and MBP-fused human caspase-2 pro-domain was detected by microscale thermophoresis (MST). […] The calculated dissociation constant (KD) is expressed as means ± s.d. from two determinations. […] ATP-based cell viability in panels (C–E) is expressed as mean ± s.d. from three technical replicates. […] TEXT PRINTED IN THE PICTURE: (A) HUHS015-36: MBP-CASP2(32–165) vs. HUHS015-36: KD (μmol/L): 22.05 ± 6.151; MBP vs. HUHS015-36: KD (μmol/L): Not detected
MicroScale thermophoresis (MST) experiments were carried out at 25°C in the PBST Buffer (PBS with 0.05%, v/v Tween 20) by using a Monolith 2020 (TNG) (MM-208). […] The temperature-induced changes in fluorescence intensity of each sample in the capillary thermophoresis tubes were recorded by the Monolith instrument. […]
A general note: MST reads how a fluorescent partner responds to local heating, with and without ligand.

Take `Cc1ccc2nc(-n3nc(C)c(Cc4ccccc4)c3O)[nH]c2c1` [HUHS015]: in experiment [1] (human caspase-2 with L150 and Y151 replaced by mouse P150 and H151, 5 h), the “caspase-2 activation and cell death” value was “abolished”. For the same compound, the “caspase-2 activation and apoptosis” value in experiment [1] (mouse caspase-2 with P150 and H151 replaced by L150 and Y151, 5 h) is “capable of being activated”.

In general, Kd refers to the constant that tells how readily two partners part at equilibrium. With `Cc1cccc2nc(-n3nc4c(c3O)CCCC4)[nH]c12` [HUHS015-36], the KD result in experiment [2] was “Not detected; also recorded: failed to detect confident binding”. The Kd in experiment [3] was ~22 µM and 22.1 µM.
